Measured values taken from patent US7910600B2, “Therapeutic kinase modulators” (Cylene Pharmaceuticals, Inc., priority 2007, dated 2011).

Legend:
[1] = system: MV-4-11; test: Cell proliferation assay (Alamar Blue), MV-4-11; assay type: cell-based; settings: Homo sapiens, MV4-11; MV-4-11 cell line
Protocol: (§1) A representative cell-proliferation assay protocol using Alamar Blue dye (stored at 4° C., use 20 ul per well) is described hereafter.
(§2) 96-Well Plate Setup and Compound Treatment
(§3) • a. Split and trypsinize cells. • b. Count cells using hemocytometer. • c. Plate 4,000-5,000 cells per well in 100 μl of medium and seed into a 96-well plate according to the following plate layout. Add cell culture medium only to wells B10 to B12. Wells B1 to B9 have cells but no compound added.
(§4) • d. Add 100 μl of 2× drug dilution to each well in a concentration shown in the plate layout above. At the same time, add 100 μl of media into the control wells (wells B10 to B12). Total volume is 200 μl/well. • e. Incubate four (4) days at 37° C., 5% CO2 in a humidified incubator. • f. Add 20 μl Alamar Blue reagent to each well. • g. Incubate for four (4) hours at 37° C., 5% CO2 in a humidified incubator. • h. Record fluorescence at an excitation wavelength of 544 nm and emission wavelength of 590 nm using a microplate reader.
(§5) In the assays, cells are cultured with a test compound for approximately four days, the dye is then added to the cells and fluorescence of […] dye is detected after approximately four hours. Different types of cells can be utilized in the assays (e.g., HCT-116 human colorectal carcinoma cells, PC-3 human prostatic cancer cells and MiaPaca human pancreatic carcinoma cells).

[2] = system: HCT-116 human colorectal carcinoma cells; test: Cell proliferation assay (Alamar Blue), HCT-116; assay type: cell-based; settings: HCT-116 cell line
Protocol: as §1, §2, §3, §4, §5

[3] = system: PC-3 human prostatic cancer cells; test: Cell proliferation assay (Alamar Blue), PC3; assay type: cell-based; settings: PC3 cell line
Protocol: as §1, §2, §3, §4, §5

[4] = biological target: T1, recombinant human CK2 (Homo sapiens, UniProt P68400); test: Cell-free CK2 assay; assay type: biochemical; settings: for inhibition at 0.5 µM: read-out: CK2: % inh 500 nM
T1 construct: purchased Upstate
Protocol: Modulatory activity of compounds described herein is assessed in vitro in cell-free CK2 assays. These assays are described hereafter.
Test compounds in aqueous solution are added at a volume of 10 microliters, to a reaction mixture comprising 10 microliters Assay Dilution Buffer (ADB; 20mM MOPS, pH 7.2, 25 mM beta-glycerolphosphate, 5 mM EGTA, 1 mM sodium orthovanadate and 1 mM dithiothreitol), 10 microliters of substrate peptide (RRRDDDSDDD (SEQ ID NO:4), dissolved in ADB at a concentration of 1 mM), 10 microliters of recombinant human CK2 (25 ng dissolved in ADB; Upstate). Reactions are initiated by the addition of 10 microliters of ATP Solution (90% 75 mM MgC12, 75 micromolar ATP dissolved in ADB; 10% [γ-^33P]ATP (stock 1 mCi/100 μl; 3000 Ci/mmol (Perkin Elmer) and maintained for 10 minutes at 30 degrees C. The reactions are quenched with 100 microliters of 0.75% phosphoric acid, then transferred to and filtered through a phosphocellulose filter plate (Millipore). After washing each well 5 times with 0.75% phosphoric acid, the plate is dried under vacuum for 5 min and, following the addition of 15 ul of scintillation fluid to each well, the residual radioactivity is measured using a Wallac […].

[5] = system: MiaPaca human pancreatic carcinoma cells; test: Cell proliferation assay (Alamar Blue), MiaPaCa; assay type: cell-based; settings: MIA PaCa-2, MiaPaCa cell line
Protocol: as §1, §2, §3, §4, §5

[6] = system: K562; test: Cell proliferation assay (Alamar Blue), K562; assay type: cell-based; settings: Homo sapiens; K562 cell line
Protocol: as §1, §2, §3, §4, §5

[7] = system: BxPC3; test: Cell proliferation assay (Alamar Blue), BxPC3; assay type: cell-based; settings: Homo sapiens, BXPC-3; BxPC3 cell line; read-out: Bx-PC3
Protocol: as §1, §2, §3, §4, §5

[8] = system: MDA-MB231; test: Cell proliferation assay (Alamar Blue), MDA-MB231; assay type: cell-based; settings: Homo sapiens, MDA-MB-231; MDA-MB231 cell line
Protocol: as §1, §2, §3, §4, §5

T1 sequence (P68400 whole entry): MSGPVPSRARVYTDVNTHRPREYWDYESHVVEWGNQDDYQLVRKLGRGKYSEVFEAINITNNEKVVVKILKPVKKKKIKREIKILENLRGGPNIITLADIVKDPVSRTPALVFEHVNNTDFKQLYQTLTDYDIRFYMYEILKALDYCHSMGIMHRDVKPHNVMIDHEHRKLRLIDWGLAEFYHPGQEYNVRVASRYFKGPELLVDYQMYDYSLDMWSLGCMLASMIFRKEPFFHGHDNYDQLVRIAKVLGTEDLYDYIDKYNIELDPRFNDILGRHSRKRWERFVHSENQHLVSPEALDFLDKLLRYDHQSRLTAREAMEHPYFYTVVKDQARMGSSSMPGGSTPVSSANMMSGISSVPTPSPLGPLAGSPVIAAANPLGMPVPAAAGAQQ
T1 sequence (P67870 whole entry partner): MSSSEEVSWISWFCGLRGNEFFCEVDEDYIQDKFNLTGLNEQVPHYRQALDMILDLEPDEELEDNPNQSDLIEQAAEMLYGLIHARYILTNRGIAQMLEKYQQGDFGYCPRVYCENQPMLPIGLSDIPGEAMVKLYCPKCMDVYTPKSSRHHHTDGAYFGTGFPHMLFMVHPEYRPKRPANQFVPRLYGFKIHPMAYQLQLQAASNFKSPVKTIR

| SMILES | IC50 [1] [µM] | IC50 [2] [µM] | IC50 [3] [µM] | IC50 [4] [µM] | inhibition at 0.5 µM [4] [%] | IC50 [5] [µM] | IC50 [6] [µM] | IC50 [7] [µM] | IC50 [8] [µM] |
| --- | --- | --- | --- | --- | --- | --- | --- | --- | --- |
| O=C(O)c1ccc2c(c1)nc(-c1ccc(F)cc1)c1ccncc12 | 7 | > 10 | > 10 | 0.033 | 98 | > 30 | 1 |  |  |
| Cc1noc(C)c1-c1nc2cc(C(=O)O)ccc2c2cnccc12 |  |  |  |  | 52 |  |  |  |  |
| N#Cc1cccc(-c2nc3cc(C(=O)O)ccc3c3cnccc23)c1 |  | > 10 | > 10 | 0.045 | 98 | > 10 |  |  |  |
| Cc1cnc(CNC(=O)c2ccc3c(c2)nc(-c2cccc(N)c2)c2ccncc23)cn1 |  | > 10 |  |  | -24 |  |  |  |  |
| O=C(O)c1ccc2c(c1)nc(-c1ccccc1OC(F)(F)F)c1ccncc12 |  | > 10 | > 10 |  | 23 | > 10 |  |  |  |
| CCCNC(=O)c1ccc2c(c1)nc(-c1ccccc1)c1ccncc12 | > 10 | > 10 |  |  | -26 |  | > 10 |  |  |
| O=C(O)c1ccc2c(c1)nc(-c1ccccc1F)c1ccncc12 | > 10 | > 10 | 4.1 | 0.106 | 97 | > 10 | > 10 |  |  |
| Cn1cc(-c2nc3cc(C(=O)O)ccc3c3cnccc23)cn1 | > 10 | > 10 |  | 0.004 | 98 | > 10 | > 10 | > 10 | > 10 |
| Nc1cccc(-c2nc3cc(C(=O)O)ccc3c3cnccc23)c1 | > 10 | > 10 |  | 0.027 | 97 | > 10 |  | > 10 | > 10 |
| O=C(O)c1ccc2c(c1)nc(-c1ccccc1)c1ccncc12 [5-phenylbenzo[c][2,6]naphthyridine-8-carboxylic acid] | 8.1 | > 10 |  | 0.013 | 97 | > 10 | > 10 | > 10 | > 10 |
| COC(=O)c1ccc2c(c1)nc(-c1cscc1C)c1ccncc12 |  |  |  |  | 4 |  |  |  |  |
| Cc1ccccc1-c1nc2ccccc2c2cnccc12 |  | > 10 | > 10 |  | -15 | > 10 | > 10 |  |  |
| O=C(O)c1ccc2c(c1)nc(-c1ccc(Cl)s1)c1ccncc12 |  |  |  |  | 99 |  |  |  |  |
| Cn1cc(-c2nc3cc(C(N)=O)ccc3c3cnccc23)cn1 | 2.9 | > 10 |  |  | 7 |  | > 10 |  |  |
| Clc1ccc(-c2nc3ccccc3c3cnccc23)cc1 |  | > 10 | > 10 |  | -5 | > 10 | > 10 |  |  |
| CN1CCCN(C(=O)c2ccc3c(c2)nc(-c2ccccc2)c2ccncc23)CC1 | > 10 | > 10 |  |  | -15 |  | > 10 |  |  |
| CC(=O)Nc1cccc(-c2nc3cc(C(=O)NN4CCOCC4)ccc3c3cnccc23)c1 |  | > 10 |  |  | 19 |  |  |  |  |
| CN(C)C(=O)c1ccc2c(c1)nc(-c1cnn(C)c1)c1ccncc12 | > 10 | > 10 |  |  | -13 |  | > 10 |  |  |
| CC(=O)Nc1cccc(-c2nc3cc(C(=O)N4CCN(C)CC4)ccc3c3cnccc23)c1 |  | > 10 |  |  | 6 |  |  |  |  |
| Nc1cccc(-c2nc3cc(C(=O)NCCN4CCCC4)ccc3c3cnccc23)c1 |  | > 10 |  |  | 56 |  |  |  |  |
| CC(=O)Nc1cccc(-c2nc3cc(C(=O)NCc4cnc(C)cn4)ccc3c3cnccc23)c1 |  | > 10 |  |  | -6 |  |  |  |  |

Next, values leading:

| IC50 [1] [µM] | IC50 [2] [µM] | IC50 [3] [µM] | IC50 [4] [µM] | inhibition at 0.5 µM [4] [%] | IC50 [5] [µM] | IC50 [6] [µM] | IC50 [7] [µM] | IC50 [8] [µM] | SMILES |
| --- | --- | --- | --- | --- | --- | --- | --- | --- | --- |
|  | > 10 | > 10 |  | 76 | > 10 | > 10 |  |  | Cc1ccccc1-c1nc2cc(C(=O)O)ccc2c2cnccc12 |
|  | > 10 |  |  | -21 |  |  |  |  | CN1CCCN(C(=O)c2ccc3c(c2)nc(-c2cccc(N)c2)c2ccncc23)CC1 |
|  | > 10 |  |  | 30 |  |  |  |  | CC(=O)Nc1cccc(-c2nc3cc(C(=O)N4CCCN(C)CC4)ccc3c3cnccc23)c1 |
|  | > 10 | > 10 |  | -17 | > 10 | > 10 |  |  | Clc1cccc(-c2nc3ccccc3c3cnccc23)c1 |
| > 10 | > 10 |  |  | 57 |  | > 10 |  |  | CN1CCN(C(=O)c2ccc3c(c2)nc(-c2ccccc2)c2ccncc23)CC1 |
| > 10 | > 10 |  |  | 0 |  | > 10 |  |  | CN(C)C(=O)c1ccc2c(c1)nc(-c1ccccc1)c1ccncc12 |
| > 10 | > 10 |  |  | -21 |  | > 10 |  |  | CCCNC(=O)c1ccc2c(c1)nc(-c1cnn(C)c1)c1ccncc12 |
|  |  |  |  | 87 |  |  |  |  | Cc1cscc1-c1nc2cc(C(=O)O)ccc2c2cnccc12 |
|  | > 10 |  |  | -28 |  |  |  |  | Nc1cccc(-c2nc3cc(C(=O)NN4CCOCC4)ccc3c3cnccc23)c1 |
|  | > 10 |  | 0.144 | 89 |  |  |  |  | CC(=O)Nc1cccc(-c2nc3cc(C(=O)NCCN4CCCC4)ccc3c3cnccc23)c1 |
| > 10 | > 10 |  |  | -9 |  | > 10 |  |  | O=C(NC1CC1)c1ccc2c(c1)nc(-c1ccccc1)c1ccncc12 |
| > 10 | > 10 |  | 0.042 | 93 | > 10 | > 10 | > 10 | > 10 | CC(=O)Nc1cccc(-c2nc3cc(C(=O)O)ccc3c3cnccc23)c1 |
| > 10 | 2.5 |  |  | -49 |  | > 10 |  |  | COC(=O)c1ccc2c(c1)nc(-c1cnn(C)c1)c1ccncc12 [Methyl 5-(1-methyl-1H-pyrazol-4-yl)benzo[c][2,6]naphthyridine-8-carboxylate] |
| > 10 | 2.9 |  |  | -34 |  | > 10 |  |  | COC(=O)c1ccc2c(c1)nc(-c1ccccc1)c1ccncc12 [Methyl 5-phenylbenzo[c][2,6]naphthyridine-8-carboxylate] |
|  |  |  |  | -37 |  |  |  |  | Fc1ccc2c(c1)nc(-c1ccncc1)c1ccncc12 |
|  | > 10 |  |  | 40 |  |  |  |  | CC(=O)Nc1cccc(-c2nc3cc(C(=O)NCC4CCCCN4C)ccc3c3cnccc23)c1 (stereo not drawn) |
| 2.7 | 1 |  |  | -15 |  |  |  |  | Cn1cc(-c2nc3cc(C(=O)NC4CC4)ccc3c3cnccc23)cn1 |
|  | 0.9 |  |  | 11 |  |  |  |  | COC(=O)c1ccc2c(c1)nc(-c1cnn(C)c1)c1nc(S(C)(=O)=O)ncc12 |
|  |  |  |  | -5 |  |  |  |  | COC(=O)c1ccc2c(c1)nc(-c1c(C)noc1C)c1ccncc12 |
|  | 2 |  |  | -26 |  |  |  |  | COC(=O)c1ccc2c(c1)nc(-c1ccccc1)c1nc(SC)ncc12 [methyl 3-(methylthio)-5-phenylpyrimido[4,5-c]quinoline-8-carboxylate] |
|  |  |  |  | -51 |  |  |  |  | Fc1ccc2c(c1)nc(-c1ccccc1)c1ccncc12 |
|  |  |  |  | -35 |  |  |  |  | Fc1ccc2c(c1)nc(-c1cccc(OC(F)(F)F)c1)c1ccncc12 |
| 1.4 | > 10 |  |  | 27 |  | > 10 |  |  | NC(=O)c1ccc2c(c1)nc(-c1ccccc1)c1ccncc12 |
|  | > 10 | > 10 |  | 68 | > 10 | > 10 |  |  | COc1cccc(F)c1-c1nc2cc(C(=O)O)ccc2c2cnccc12 |
